Measurements taken from patent publication US20070224194A1, “Methods for Inhibiting Angiogenesis and/or Lymphangiogenesis” (LUDWIG INSTITUTE FOR CANCER RESEARCH, priority 2004, published 2007).
The star is where a group is joined. Decanoyl = CCCCCCCCCC(=O)*; CH2Cl = ClC*

Legend:
[1] = system: BaF3 cells expressing the VEGFR-3/EpoR chimeric receptor; experiment: BaF3 bioassay, VEGFR-3/EpoR chimeric receptor, [3H]thymidine incorporation; type: cell-based; conditions: paper example in present tense
Excerpt: In order to test if a furin or broad-range PC inhibitor can block the biological effects of VEGF-D, mammalian cells are employed that proteolytically process VEGF-D, such as 293EBNA or Capan-1 pancreatic carcinoma cells. Derivatives of these cells harboring an expression construct for full-length VEGF-D are transfected with the shRNA construct for furin (as described here) or treated with a broad-range PC inhibitor such as decanoyl-Arg-Val-Lys-Arg-chloromethylketone (see, PCT WO 2005/112971 A1, the disclosure of which is incorporated herein by reference in its entirety). The inhibition of VEGF-D processing by these agents is confirmed by immunoprecipitation/Western blotting of the conditioned cell culture media using antibody that binds the VHD of VEGF-D. The conditioned cell culture media from cells treated with the inhibitors (and from cells in which these agents are omitted, i.e. “mock” treatments) are used for incubations with BaF3 pre-B cells expressing chimeric receptors consisting of the extracellular domains of VEGFR-2 or VEGFR-3 and the transmembrane and cytoplasmic domains of the erythropoietin receptor (EpoR) (Stacker et al., J. Biol. Chem., 274:34884-34892, 1999; Achen et al., Eur. J. Biochem., 267:2505-2515, 2000). […] The proliferation of the cells in response to the conditioned media containing VEGF-D is monitored by incorporation of [3H]thymidine into DNA. […]

[2] = system: proteolytic processing of VEGF-D; experiment: Processing of VEGF-D secreted by 293EBNA cells expressing VEGF-D-FULL-N-FLAG (immunoprecipitation/Western blot); type: cell-based, human; conditions: for proteolytic processing of full-length VEGF-D: 100 μM
Description: 293EBNA cells stably transfected with an expression construct encoding VEGF-C-FULL-N-Myc (full-length VEGF-C tagged with Myc at the N-terminus) or VEGF-D-FULL-N-FLAG (full-length VEGF-D tagged with FLAG at the N-terminus) secrete fully and partially processed forms of VEGF-C or VEGF-D into the culture medium (Joukov et al., EMBO J. 16:3898-3911 1997; Stacker et al., J. Biol. Chem. 274: 32127-32136, 1999). These cells were grown overnight in 24-well plates, seeded with 8×10^4 cells per well. At the time when cultures were initiated in these plates, growth medium was supplemented with Dec-RVKR-CMK (Calbiochem) (dissolved in methanol) to a final concentration of 0, 1, 10, 50 or 100 μM. Solvent control cultures were also established, in which the medium was supplemented with methanol at concentrations equal to those present in the cultures treated with inhibitor. After 18 hours of growth (at 37° C., 10% CO2 in a humidified environment), conditioned cell culture medium was removed from the cells and cleared by centrifugation (5 minutes, 250×g, 4° C.).
VEGF-C species were immunoprecipitated from conditioned medium by addition of anti-VEGF-C antibody that binds the VHD and C-terminal propeptide (R&D Systems). VEGF-D species were immunoprecipitated by addition of A2 antiserum that binds within the VHD of VEGF-D (Stacker et al., J. Biol. Chem. 274: 32127-32136, 1999). Immune complexes were allowed to form for 2 hours at 4° C. with gentle agitation and precipitated by addition of 10 μl of protein A sepharose beads and incubation for 2 hours at 4° C. with gentle agitation. Protein A sepharose complexes were recovered by centrifugation (5 minutes, 250×g, 4° C.) and washed twice with ice cold 50 mM Tris, 150 mM NaCl, pH 8.0. The precipitated VEGF-C and VEGF-D species were then analysed by Western blot using biotinylated antibodies against the VHD and C terminus of VEGF-C, or the VHD of VEGF-D (R&D Systems) and streptavidin-horse radish peroxidase conjugate (Zymed) (FIGS. 1 and 2). […]
The 293EBNA cell lines expressing VEGF-D-FULL-FLAG, VEGF-DΔC or VEGF-DΔN were seeded into 24-well plates (8×10^4 cells/well), in medium supplemented with Dec-RVKR-CMK dissolved in methanol, to a final concentration of 0, 1, 10, 50 or 100 μM. […] The precipitated VEGF-D species were then analysed by reducing SDS-PAGE and Western blotting using a biotinylated antibody against the VHD of human VEGF-D (R&D Systems), and Streptavidin-horse radish peroxidase conjugate (Zymed).

Decanoyl-Arg-Val-Lys-Arg-chloromethylketone (Decanoyl-RVKR-CH2Cl) [Dec-RVKR-CMK]
proliferation of BaF3 VEGFR-3/EpoR cells induced by conditioned media of treated VEGF-D-expressing cells [1]: do not induce significant proliferation
abundance of fully and partially processed forms of VEGF-D ([2]; 0, 1, 10, 50 or 100 μM, 18 hours, Western blot): dramatically reduced in abundance in a dose-dependent manner
proteolytic processing of full-length VEGF-D ([2]; 18 hours): totally blocked
proteolytic processing of full-length VEGF-D ([2]; 18 hours, listed as dec-RVKR-CMK): complete inhibition
proteolysis of VEGF-D-FULL-N-FLAG ([2]; concentrations lower than 100 μM): incompletely inhibited
